In paper PMC9964651, “Discovery of Ureido-Based Apcin Analogues as Cdc20-specific Inhibitors against Cancer” (Pharmaceuticals, 2023):
Like-named read-outs stand apart in the source and are kept apart here.

What was measured:
tubulin [1] = assay: Tubulin polymerization assay in vitro; format: biochemical
Procedure: We used an HTS-Tubulin Polymerization Assay Kit (BK004P, Cytoskeleton, USA) to assess the inhibitory effect of compounds on tubulin polymerization. Tubulin solution was prepared, and the compound solution and paclitaxel solution were tested according to the instructions of the kit. General tubulin buffer, paclitaxel solution, and 10× test compound solution were added to a 96-well plate (10 μL/well) and incubated at 37 °C for two minutes. A total of 100 μL of tubulin solution was pipetted into the corresponding wells. The plate was immediately placed on a multi-function microplate reader at 37 °C, and the continuous kinetic values were recorded.
Figure 7 The effect of compound 20 and compound 27 on in vitro tubulin polymerization was tested. Polymerization of purified tubulin was performed in a cell-free assay. Tubulin protein was incubated at 37 °C in a reaction buffer exposed to vehicle control or test compounds at the indicated concentrations. Absorbance at 340 nm was monitored at 37 °C every 30 s for 1 h.

Hepg2 [2] = tested on: Hepg2; design: method as in PMID 32290657; conditions: previous studies; read-out: IC50 ± SD Hepg2; cited from earlier work
Mcf-7 [3] = tested on: Mcf-7; design: method as in PMID 32290657; conditions: previous studies; read-out: IC50 ± SD Mcf-7; cited from earlier work
Hela [4] = tested on: Hela; design: method as in PMID 32290657; conditions: previous studies; read-out: IC50 ± SD Hela; cited from earlier work
Hela [5] = assay: In vitro antiproliferative assay (CCK-8); format: cell-based, human; conditions: Homo sapiens, HeLa; CCK-8, 48 h, mean ± SD
Excerpt: The experiment was repeated three times.

[6] = tested on: Cdc20 and downstream substrates (cyclin B1, securin, Bim, cleaved PARP) in Hela cells; assay: Western blot of Cdc20 and Cdc20 downstream proteins; format: cell-based, human; conditions: for Cdc20 protein level: 12 h after addition
Procedure: The lysate for extracting cellular proteins was prepared with bromophenol blue (0.02%), dithiothreitol (DTT; 0.5M), glycerol (30%), sodium dodecyl sulfate (SDS; 10%) and Tris-Cl (0.25M, pH 6.8). Protein extracts were separated according to molecular weight by the polyacrylamide gel electrophoresis (PAGE) method and then transferred to solid-phase support (PVDF membrane). The PVDF membrane was placed in a blocking solution containing 5% skim milk for 2 h, followed by incubation with primary and secondary antibodies, and the bands were detected and imaged in the ChemiDocTMXRS+ imaging system.
Figure 1 (A) Expression levels of Cdc20 protein in different cell lines. (B) Cdc20 levels were measured by Western blot 12 h after the addition of compounds. The reproducibility of the results was confirmed by at least two separate experiments. (a) Quantitative results of (A) compared to Hela. (b) Quantitative results of (B) compared to control. Statistical significance was calculated by two-tailed unpaired t test.
Figure 4 (A) Protein levels of cyclin B1 and securin were measured by Western blot. (B) Protein levels of Bim were measured by Western blot. (C) Protein levels of cleaved PARP were measured by Western blot. […] (a–d) Quantitative results of (A–C) compared to control. Statistical significance was calculated by two-tailed unpaired t test (* p < 0.05, ** p < 0.01, *** p < 0.001).

Hela cells [7] = assay: Annexin V-FITC/PI double-staining cell-apoptosis assay; format: cell-based, human; conditions: 24 h, in words
Procedure: Then, the preset drug concentration was added and incubated for 24 h. Cells were collected by centrifugation, resuspended in buffer, and then stained by adding Annexin V-FITC (5 μL) and PI Staining Solution (5 μL) and incubated at room temperature for 10 min. The samples were detected by flow cytometry within 1 h after staining. Flow cytometer (Beckman Coulter Cytofex) was used for subsequent detection, and the data were processed with FlowJo software.

Hela cells [8] = assay: Cell-cycle assay (flow cytometry, propidium iodide); format: cell-based, human; conditions: 24 h; for number of cells in the mitotic G2/M phase: in words
Procedure: Then, the preset drug concentration was added and incubated for 24 h. Cells were collected by centrifugation and were fixed overnight with pre-cooled ethanol (70%) and washed twice with buffer, propidium-iodide staining solution was added (0.5 mL/well), and they were incubated at 37 °C for 30 min in the dark for flow detection.

Mda-mb-231 = assay: In vitro antiproliferative assay (CCK-8); conditions: Homo sapiens, MDA-MB-231, 48 h, read-out: IC50 ± SD Mda-mb-231
Procedure: (§1) Hela and MDA-MB-132 cells were grown in DMEM (Gibco) containing 10% FBS and 1% double antibody (penicillin 100 U/mL, streptomycin 100 μg/mL, Solarbio). […] All cell lines were purchased from the Xiangya Cell Bank, Central South University, Changsha, China, and incubated at 37 °C with 5% CO2 in a humidified atmosphere. […] Cytotoxicity assay was assessed using CCK-8 methods. The cells were seeded in a 96-well plate (2 × 10^3–3 × 10^3 cells/well), the 96-well plate was incubated at 37 °C with 5% CO2 in a humidified atmosphere, and the cells were grown in a monolayer; the original culture was discarded. A total of 100 μL of drug-containing medium with a specific concentration gradient was added and then cultivated for 48 h; 10 μL/well of CCK-8 solution was added, put in an incubator, and incubated for 1 h and read with a multi-function microplate reader at a wavelength of 450 nm. The inhibition rate was calculated, and the IC50 results were calculated by GraphPad Prism 7 software. The experiment was repeated three times.

Hepg2 [9] = assay: In vitro antiproliferative assay (CCK-8); conditions: Homo sapiens, HepG2, 48 h, read-out: IC50 ± SD Hepg2
Procedure: as §1

Mcf-7 [10] = assay: In vitro antiproliferative assay (CCK-8); conditions: Homo sapiens, MCF7, 48 h, read-out: IC50 ± SD Mcf-7
Procedure: as §1

four cancer-cell lines = assay: In vitro antiproliferative assay (CCK-8), cell line not given; conditions: Homo sapiens, read-out: IC50 (antiproliferative activity)
[11] = molecular target: recombinant human Cdc20 protein (Homo sapiens, UniProt Q12834); assay: Surface plasmon resonance (SPR) assay; format: binding; conditions: for Kd: dissociation-equilibrium constant; for Kd / Kd (1/S): one-to-one model; for Kd (1/S): dissociation-rate constant
Sequence of recombinant human Cdc20 protein (Q12834 whole entry): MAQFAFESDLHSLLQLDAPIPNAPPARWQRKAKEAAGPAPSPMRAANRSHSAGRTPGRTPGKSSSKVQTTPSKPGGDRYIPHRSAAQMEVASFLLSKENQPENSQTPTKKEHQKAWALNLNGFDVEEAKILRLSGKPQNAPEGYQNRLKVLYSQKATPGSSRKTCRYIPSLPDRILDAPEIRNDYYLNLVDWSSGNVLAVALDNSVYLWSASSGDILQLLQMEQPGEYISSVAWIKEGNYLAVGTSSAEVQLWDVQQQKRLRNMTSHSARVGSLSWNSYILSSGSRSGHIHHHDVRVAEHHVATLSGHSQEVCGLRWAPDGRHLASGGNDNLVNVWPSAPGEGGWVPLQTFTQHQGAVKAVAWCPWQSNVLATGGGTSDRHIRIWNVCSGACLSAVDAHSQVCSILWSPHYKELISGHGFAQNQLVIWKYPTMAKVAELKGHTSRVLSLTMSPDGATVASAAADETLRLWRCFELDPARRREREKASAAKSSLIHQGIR
Procedure: Surface plasmon resonance (SPR) analysis can measure the interaction process between various biomolecules, such as polypeptides, proteins, oligonucleotides, and oligosaccharides, as well as viruses, bacteria, cells, and small molecular compounds. First, we installed the COOH chip according to the standard operating procedure of the OpenSPRTM instrument and started running it at the maximum flow rate (150 μL/min). The detection buffer was PBS, and after reaching the signal baseline, 200 μL of isopropanol were loaded and the air was removed by running for 10 s. After reaching baseline, the sample loop was flushed with buffer and evacuated with air, and after the signal reached baseline, the buffer flow rate was adjusted to 20 μL/min. A total of 200 μL of EDC/NHS (1:1) solution (20 μL/min, 4 min), 200 μL EDC/NHS (1:1) solution (20 μL/min, 4 min), and 200 μL recombinant human Cdc20 protein buffer was loaded and run for 4 min (20 μL/min), and the sample loop was rinsed with buffer and drained with null air. A total of 200 μL of blocking solution was loaded (20 μL/min, 4 min), and the sample loop was flushed with buffer and evacuated with air. After the baseline was stable, the analyte was diluted with buffer and loaded at 20 μL/min. The binding time of the analyte and the ligand was 240 s, and the natural dissociation time was 480 s. The analysis software used for the experimental results was TraceDrawer (Ridgeview Instruments ab, Sweden), and the analysis method was the one-to-one analysis model.
Molecules were tested in a dilution series starting at 500 μM. The analyte was diluted with buffer and loaded at 20 μL/min. The binding time of the analyte and the ligand was 240 s, and the natural dissociation time was 480 s. The analysis software used for the experimental results was TraceDrawer (Ridgeview Instruments AB, Sweden), and the analysis method was the one-to-one analysis model.

tubulin [12] = tested on: tubulin; design: method as in PMID 32290657; conditions: previous research of the authors; cited from earlier work

For `CC(=O)O[C@H]1C(=O)[C@@]2(C)[C@H]([C@H](OC(=O)c3ccccc3)[C@]3(O)C[C@H](OC(=O)[C@H](O)[C@@H](NC(=O)c4ccccc4)c4ccccc4)C(C)=C1C3(C)C)[C@]1(OC(C)=O)CO[C@@H]1C[C@@H]2O` [paclitaxel, reference compound], the “effect on microtubule polymerization” value (tubulin [1]; reference compound, concentration not given) was “promote microtubule polymerization”.

In the case of `Cc1ncc([N+](=O)[O-])n1CCOC(=O)N[C@H](Nc1c(Cl)nc(N)nc1Cl)C(Cl)(Cl)Cl` [Compound 7d], the IC50 (Hepg2 [2]) is given as 25.6 ± 6.1 µM, the IC50 (Mcf-7 [3]) is given as 160 ± 5 µM and the IC50 (Hela [4]) is given as 63.2 ± 0.9 µM.

In the case of `Nc1nc(F)nc2c1ncn2C(NC(=O)NCCN1CCOCC1)C(Cl)(Cl)Cl` (stereo not shown) [Compound 27, 1-(1-(6-amino-2-fluoro-9H-purin-9-yl)-2,2,2-trichloroethyl)-3-(2-morpholinoethyl)urea], the IC50 (Hela [5]) is reported as 0.06 ± 0.02 µM, the “expression of Bim” value [6] is reported as “significantly increase” and the “expression of cleaved PARP” value [6] is reported as “significantly increase”. The “level of cyclin B1 protein” value [6] was “significantly increased”, the “level of securin protein” value [6] was “significantly increased” and the Cdc20 protein level [6] was “no effect”. The apoptotic rates (Hela cells [7]) was “increased in a concentration-dependent way”, the “number of cells in the mitotic G2/M phase” value (“number of cells” below) (Hela cells [8]) was “slightly reduced” and the “effect on microtubule polymerization” value (tubulin [1]; cell-free, purified tubulin, 37 °C, absorbance 340 nm, 3 μM and 30 μM) was “promoted microtubule polymerization in a concentration-dependent manner”. It also gave an IC50 (Mda-mb-231) of 0.32 ± 0.04 µM, an IC50 (Hepg2 [9]) of 0.24 ± 0.11 µM and an IC50 (Mcf-7 [10]) of 0.27 ± 0.06 µM.

`O=C(NCCN1CCOCC1)NC(Nc1ncccn1)C(Cl)(Cl)Cl` (stereo not shown) [Compound 4, 1-(2-morpholinoethyl)-3-(2,2,2-trichloro-1-(pyrimidin-2ylamino)ethyl)urea] showed an IC50 (Hela [5]) of over 100 µM, an IC50 (Mda-mb-231) of over 100 µM and an IC50 (Hepg2 [9]) of over 100 µM. It also gave an IC50 (Mcf-7 [10]) of over 100 µM and an IC50 (four cancer-cell lines) of over 80 µM.

`O=C(NCCc1ccccc1)NC(Nc1nccc(C(F)(F)F)n1)C(Cl)(Cl)Cl` (stereo not shown) [Compound 7, 1-phenethyl-3-(2,2,2-trichloro-1-((4-(trifluoromethyl)pyrimidin-2-yl)aminno16)ethyl)urea] showed an IC50 (Hela [5]) of 34.2 ± 5.16 µM, an IC50 (Mda-mb-231) of 34.7 ± 1.23 µM and an IC50 (Hepg2 [9]) of 20.7 ± 3.6 µM. The IC50 (Mcf-7 [10]) was 21.3 ± 4.52 µM and the IC50 (four cancer-cell lines) was under 40 µM.

With `Cc1ncc([N+](=O)[O-])n1CCOC(=O)N[C@@H](Nc1ncccn1)C(Cl)(Cl)Cl` (racemic) [Apcin] the IC50 (Hela [5]) was 182 ± 12.5 µM, the Kd [11] was 236 µM and the “Kd (1/S)” value [11] was 2.33 × 10^−2 1/S. The apoptotic rates (Hela cells [7]) was “increased in a concentration-dependent way”, the “P4 gate (cells in the G2/M phase)” value (Hela cells [8]; 150μm) was 34.87% and the “number of cells” value (Hela cells [8]) was “significant increase”. The IC50 (Mda-mb-231) was over 100 µM, the IC50 (Hepg2 [9]) was over 100 µM and the IC50 (Mcf-7 [10]) was over 100 µM.

In the case of `Cc1ncc([N+](=O)[O-])n1CCNC(=O)NC(Nc1ncccn1)C(Cl)(Cl)Cl` (stereo not shown) [Compound 1, 1-(2-(2-methyl-5-nitro-1H-imidazol-1-yl)ethyl)-3-(2,2,2-trichloro-1-(pyrimidin-2-ylamino)ethyl)urea], the IC50 (Hela [5]) is reported as over 100 µM, the IC50 (Mda-mb-231) is reported as over 100 µM and the IC50 (Hepg2 [9]) is reported as over 100 µM. The IC50 (Mcf-7 [10]) was over 100 µM and the IC50 (four cancer-cell lines) was over 80 µM.

For `Nc1c(Cl)nc(NC(NC(=O)NCCc2ccccc2)C(Cl)(Cl)Cl)nc1Cl` (stereo not shown) [Compound 20, 1-(1-((5-amino-4,6-dichloropyrimidin-2-yl)amino)-2,2,2-trichloroethyl)-3-phenethylurea], the IC50 (Hela [5]) was 24.7 ± 2.01 µM, the Kd [11] was 79.6 µM and the “Kd (1/S)” value [11] was 5.78 × 10^−3 1/S. For the same compound, the “binding affinity to Cdc20 relative to Apcin” value ([11]; from Kd values) was “about three times”, the “expression of Bim” value [6] was “significantly increase” and the “expression of cleaved PARP” value [6] was “significantly increase”. For the same compound, the “level of cyclin B1 protein” value [6] was “significantly increased”, the “level of securin protein” value [6] was “significantly increased” and the Cdc20 protein level [6] was “no effect”. For the same compound, the apoptotic rates (Hela cells [7]) was “increased in a concentration-dependent way”, the “P4 gate (cells in the G2/M phase)” value (Hela cells [8]; 40μm) was 41.09% and the “number of cells” value (Hela cells [8]) was “significant increase”. For the same compound, the “effect on microtubule polymerization” value (tubulin [1]; cell-free, purified tubulin, 37 °C, absorbance 340 nm, 30 μM) was “slightly promoted microtubule polymerization”, the IC50 (Mda-mb-231) was 30.4 ± 13 µM and the IC50 (Hepg2 [9]) was 31.2 ± 8.37 µM. The IC50 (Mcf-7 [10]) was 35 ± 3.06 µM and the IC50 (four cancer-cell lines) was under 40 µM.

In the case of `Nc1nc(F)nc2c1ncn2[C@H](NC(=O)OCCN1CCOCC1)C(Cl)(Cl)Cl` [Compound 9f, reference compound], the IC50 (Hela [5]) is given as 0.1 ± 0.02 µM, the IC50 (Hela [4]) is given as 0.3 ± 0.2 µM and the “effect on Cdc20 and microtubules” value (tubulin [12]) is given as “dual inhibitory effects of Cdc20 and microtubules”. For the same compound, the IC50 (Mda-mb-231) was 1.4 ± 0.22 µM, the IC50 (Hepg2 [9]) was 0.41 ± 0.36 µM and the IC50 (Mcf-7 [10]) was 0.61 ± 0.12 µM.

For `CCNC(=O)NC(Nc1ncccn1)C(Cl)(Cl)Cl` (stereo not shown) [Compound 5, 1-ethyl-3-(2,2,2-trichloro-1-(pyrimidin-2-ylamino)ethyl)urea], the IC50 (Hela [5]) was over 100 µM, the IC50 (Mda-mb-231) was over 100 µM and the IC50 (Hepg2 [9]) was over 100 µM. For the same compound, the IC50 (Mcf-7 [10]) was over 100 µM and the IC50 (four cancer-cell lines) was over 80 µM.

In the case of `O=C(NC1CCCCC1)NC(Nc1ncccn1)C(Cl)(Cl)Cl` (stereo not shown) [Compound 3, 1-cyclohexyl-3-(2,2,2-trichloro-1-(pyrimidin-2-ylamino)ethyl)urea], the IC50 (Hela [5]) is reported as over 100 µM, the IC50 (Mda-mb-231) is reported as over 100 µM and the IC50 (Hepg2 [9]) is reported as over 100 µM. For the same compound, the IC50 (Mcf-7 [10]) was over 100 µM and the IC50 (four cancer-cell lines) was over 80 µM.
